Several values for one entry are separate records, joined by “and”; a condition that tells them apart may be missing. Equal entries are not always repeated. Where two headings read alike, the source gives them in different places.
How the values were obtained:
eIF1A-RPS10 interaction = molecular target: T1, eIF1A-RPS10 interaction (Homo sapiens, UniProt P46783+P47813); experiment: Split-Renilla luciferase eIF1A-RPS10 interaction screen, dose-response; type: biochemical; conditions: summary table; read-out: IC50 concentration (µM), IC50 screen
T1 construct: made in house; host or cells: E. coli BL21 (PRSFduet); unpurified lysate supernatant
Method: While knockdown (KD) studies of eIF1A provided valuable insights into its role in mammalian cell translation (Sehrawat et al, [2019]), this approach presents several limitations. First, it fails to elucidate the functional significance of the opposing functions of eIF1A N- and C-terminal tails with respect to scanning and start codon fidelity. Second, the extended duration required for achieving efficient knockdown, 48–72 h, impairs our ability to differentiate between direct and indirect effects. To overcome these constraints, we set out to develop small-molecule inhibitors targeting eIF1A. Guided by structural and biochemical studies showing eIF1A binding to the small ribosomal subunit at the A-site and interacting directly with RPS10 through its N-terminal tail (Haimov et al, [2017]; Passmore et al, [2007]; Sehrawat et al, [2019]), our approach focused on disrupting the interaction between eIF1A and RPS10. […] The interaction between eIF1A and RPS10 brings the two parts together, leading to the reconstitution of the enzymatic activity (Haimov et al, [2017]). In this system, the spatial arrangement of the two RL parts is critical for the enzymatic activity, making it sensitive not only to direct interference with the interacting proteins but also to changes in the conformation of the fused proteins. In the eIF1A-RPS10 split-RL pair, the C-terminus of eIF1A is fused to N-RL (Fig. 1A), in order to maintain the NTT accessible to RPS10 binding. This pair was cloned and expressed in bacteria as recombinant proteins and used to screen a library of ~50,000 small molecules from diverse sources (Ashkenazi et al, [2017]).
eIF1A-ΔC-Renilla and RPS10-ΔN-Renilla were transformed into BL21 E. coli by heat shock transformation. A bacterial starter of 5 ml LB was incubated overnight at 37 °C and transferred into 1 L LB for incubation at 37 °C until OD ~ 0.5–0.7. Next, protein expression was induced with 0.5 mM IPTG, and bacterial cells were incubated overnight at 16 °C. Bacterial cell pellet was collected after centrifugation (3000 RPM, 15 min), resuspended in 20 ml TKE buffer (Tris 10 mM, KCl 100 mM, EDTA 0.1 mM), sonicated (bath sonicator, 24 cycles of 30 s) and centrifuged again (15000 RPM, 30 min). Supernatants were collected, analyzed for RL activity, and then used for high throughput drug screen (HTS) at the Weizmann G-INCPM HTS unit as described (Ashkenazi et al, [2017]). In addition to the standard controls of this protocol, the two parts of the split RL, without eIF1A or RPS10, were tested as controls. Selected compounds were purchased from Sigma-Aldrich and Enamine. Compound powders were resuspended in DMSO for a final concentration of 10 mM and stored at −20 °C.

[1] = test system: CUG/GUG vs AUG start codon luciferase reporters in HEK293T cells; experiment: Near-cognate AUG starting codon fidelity reporter assay (GUG, CUG vs AUG); type: cell-based; conditions: for CUG vs AUG (%): CUG start codon reporter relative to AUG reporter (AUG = 100); for CUG vs AUG (%) / GUG vs AUG (%): single-experiment calculation; for GUG vs AUG (%): GUG start codon reporter relative to AUG reporter (AUG = 100); for average CUG and GUG / average CUG and GUG relative to DMSO / CUG Average / GUG Average: NUG experiment; for CUG Average: CUG vs AUG reporter; for GUG Average: GUG vs AUG reporter; for NUG (Final data, Fig. 1E): average CUG and GUG relative to DMSO, 20 µM overnight; for GUG vs AUG data (%): individual repeat; for GUG vs AUG (%) Average: summary average of repeats, DMSO control average […]
Method: We next considered the importance of eIF1A in controlling start codon fidelity in yeast and mammalian cells (Martin-Marcos et al, [2011]; Martin-Marcos et al, [2017]; Sehrawat et al, [2019]; She et al, [2023]) and tested how inhibition of eIF1A by 1Ais affects the initiation from near-cognate AUG. The effect of 1Ais was analyzed using firefly luciferase reporters bearing either AUG (control), CUG, or GUG as the exclusive translation initiation sites. Co-transfected GFP reporter served as an internal control for transfection efficiency.
For the near-cognate AUG Starting codon fidelity reporter assay, HEK293T cells were transfected with 100 ng of the previously described luciferase reporter constructs driven either by AUG, CUG, and GUG (Tang et al, [2017]) together with GFP expressing plasmid (20 ng) as normalizing control. Luciferase and GFP levels were determined as described above.
Appendix Figure S1: (A) HEK293T cells were transfected with Luciferase reporter genes with either CUG or AUG as their exclusive starting codon. 6 hours after transfection, cells were exposed to 1Ais, and the luminescence from all constructs was measured after overnight incubation. Bars represent the ratio between luminescence from the AUG starting codon and CUG after normalization with co-transfected GFP; Error bars represent SEM, * denotes p<0.05 (T-test comparing to DMSO control), n=≥4 independent biological replicates.

eIF1A = molecular target: T2, eIF1A (Homo sapiens, UniProt P47813); type: binding; conditions: for fluorescence ratio, eIF1A: background-corrected, relative to DMSO or lowest 1Ai concentration, replicate columns; for WT eIF1A IC50: fluorescence binding
T2 construct: His-bdSUMO (cleaved yes); made in house; host or cells: E. coli BL-21

[2] = test system: IRF7 5'UTR firefly luciferase reporter in HEK293T cells; conditions: for Reference vs IRF7 (Final data, Fig. 1E): 1/Result, relative to DMSO; for LONG (summary - All), normalized to DMSO / Long: Normalized to average DMSO: Long reporter; for LONG (summary - All), normalized to DMSO / SHORT (summary - All), normalized to DMSO: individual replicates, outliers excluded, DMSO = 1; for SHORT (summary - All), normalized to DMSO: Short reporter; for average ( long vs short ratio): summary - All; for Long: Normalized to average DMSO: data section, GFP-corrected, per experiment;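 as to all read-outs here: luciferase signal corrected by a co-transfected GFP reporter for transfection efficiency, read after overnight compound exposure, with Long and Short reporters differing in 5'UTR length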
[3] = compound at 20uM (summary head)
[4] = summary table, fluorescence binding assay
[5] = raw data calculation of one experiment, GFP normalized, AUG set to 100, compound marked (20)

T2 sequence (P47813 whole entry): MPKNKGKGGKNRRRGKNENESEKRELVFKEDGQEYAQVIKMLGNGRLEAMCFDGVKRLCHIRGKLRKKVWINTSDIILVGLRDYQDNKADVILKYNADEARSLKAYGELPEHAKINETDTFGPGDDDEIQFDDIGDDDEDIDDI
T1 sequence (P47813 whole entry, one chain of several): as the sequence (P47813 whole entry) above

| SMILES | IC50 (eIF1A-RPS10 interaction) [µM] | average CUG and GUG [1] | average CUG and GUG relative to DMSO [1] | CUG Average [1] | GUG Average [1] | NUG (Final data, Fig. 1E) [1] | GUG vs AUG data (%) ([1]; compound at 20uM) | GUG vs AUG (%) Average ([1]; compound at 20uM) [%] | fluorescence ratio, eIF1A (eIF1A; 1Ai conc. 0.25 uM) | fluorescence ratio, eIF1A (eIF1A; 1Ai conc. 0.5 uM) | fluorescence ratio, eIF1A (eIF1A; 1Ai conc. 1 uM) | fluorescence ratio, eIF1A (eIF1A; 1Ai conc. 2 uM) | fluorescence ratio, eIF1A (eIF1A; 1Ai conc. 4 uM) | fluorescence ratio, eIF1A (eIF1A; 1Ai conc. 8 uM) | fluorescence ratio, eIF1A (eIF1A; 1Ai conc. 16 uM) | fluorescence ratio, eIF1A (eIF1A; 1Ai conc. 32 uM) | fluorescence ratio, eIF1A (eIF1A; 1Ai conc. 64 uM) | fluorescence ratio, eIF1A (eIF1A; 1Ai conc. 256 uM) | WT eIF1A IC50 (eIF1A) | Reference vs IRF7 (Final data, Fig. 1E) ([2]; 20 µM) | other results |
| --- | --- | --- | --- | --- | --- | --- | --- | --- | --- | --- | --- | --- | --- | --- | --- | --- | --- | --- | --- | --- | --- |
| C=CCNC(=O)CN1CCN(Cc2nc3cc(-c4ccc(Cl)cc4)sc3c(=O)[nH]2)CC1 [1Ai-1524] | 30 | 7.9532 | 1.763 | 12.0643 | 3.842 | 1.763 | 4.35% and 2.64% and 2.99% and 5.39% | 3.84 | 1.099 and 1 | 1.123 and 1.057 | 1.12 and 1.013 | 1.158 and 0.9647 | 1.086 and 0.8847 | 0.9254 and 0.8076 | 0.9496 and 0.7767 | 1.01 and 0.848 | 0.9931 and 0.7702 | 1.036 and 1.149 | No binding | 1.878 | CUG vs AUG (%) [1, 3]: 6.424%; GUG vs AUG (%) [1, 3]: 0.742%; IC50 concentration (µM), WT eIF1A (eIF1A; [4]): No binding; LONG (summary - All), normalized to DMSO ([2]; 20 µM): 0.62 and 0.21 and 0.43 and 0.52; SHORT (summary - All), normalized to DMSO ([2]; 20 µM): 0.50 and 0.66 and 0.41; average ( long vs short ratio) ([2]; 20 µM): 0.848 |
| COc1ccc(C=C2CSc3ccc(Cl)cc3C2=O)cc1O [1Ai-5175] | 16 | 5.826 | 1.2918 | 9.011 | 2.642 | 1.292 | – | – | 0.9293 and 0.8251 | 0.9438 and 0.8466 | 0.9705 and 0.8212 | 0.5643 and 0.7297 | 0.4919 and 0.7019 | 0.4802 and 0.6176 | 0.3895 and 0.4949 | 0.3105 and 0.4413 | 0.2231 and 0.3132 | 0.1792 and 0.2884 | – | 2.369 | CUG vs AUG (%) ([1]; compound at 5uM (summary head)): 10.1681% and 8.512%; GUG vs AUG (%) ([1]; compound at 5uM (summary head)): 2.289% and 2.982%; GUG vs AUG data (%) ([1]; compound at 5uM): 2.76% and 3.14% and 2.85% and 1.82%; GUG vs AUG (%) Average ([1]; compound at 5uM): 2.64%; calculation: CUG (AUG = 100) [1, 5]: 4.394; calculation: GUG (AUG = 100) [1, 5]: 1.456; IC50 (eIF1A; eIF1A, from the titration data, read-out: IC50 (eIF1A titration block)): 6.02 µM; IC50 (eIF1A; summary table, fluorescence binding assay, read-out: IC50 concentration (µM), WT eIF1A): 6 µM; LONG (summary - All), normalized to DMSO ([2]; 5 µM): 0.41 and 0.69 and 0.67; SHORT (summary - All), normalized to DMSO ([2]; 5 µM): 1.04 and 2.35 and 0.82; Long: Normalized to average DMSO ([2]; 5 µM): 0.4067 and 0.6939 and 0.6743; average ( long vs short ratio) ([2]; 5 µM): 0.422 |
| O=S(=O)(c1ccccc1)N1CCN(C2c3ccccc3-c3ccccc32)CC1 [1Ai-9025] | 17 | 4.366 | 0.9681 | 6.84 | 1.892 | 0.968 | 2.56% and 1.57% and 2.32% and 1.11% | 1.89 | 0.9827 and 0.9579 | 0.9655 and 0.9562 | 0.9303 and 0.9366 | 0.9516 and 0.9059 | 0.9297 and 0.9235 | 0.9058 and 0.9493 | 0.9688 and 0.9828 | 0.9874 and 1.077 | 1.153 and 1.164 | 1.25 and 1.3257 | No binding | 1.762 | IC50 concentration (µM), WT eIF1A (eIF1A; [4]): No binding; LONG (summary - All), normalized to DMSO ([2]; 20 µM): 0.59 and 0.94 and 0.66 and 0.50; SHORT (summary - All), normalized to DMSO ([2]; 20 µM): 1.30 and 0.73 and 1.51; Long: Normalized to average DMSO ([2]; 20 µM, includes values excluded as outliers): 0.5873 and 0.9413 and 0.6597 and 0.4965; average ( long vs short ratio) ([2]; 20 µM): 0.568 |

Reference: PMC12216609, “Inhibitors of eIF1A-ribosome interaction unveil uORF-dependent regulation of translation initiation and antitumor and antiviral effects” (The EMBO Journal, 2025)
